The source of these data is patent US8846860B2, “Methods of decorating hydroxyapatite biomaterials with modular biologically active molecules” (Wisconsin Alumni Research Foundation, priority 2009, dated 2014).

The subject of assay [1] is hMSCs. The experiment in a line: Alkaline phosphatase (ALP) activity in hMSCs. To be noted: soluble peptide (50 μg in 500 μl) with osteogenic supplements, hMSCs on TCP, day 12. It counts as cell-based, human. As for the experimental part:
hMSCs (Cambrex, Walkersville, Md., passages 5-6) were cultured in mesenchymal stem cell growth medium (MSCGM: Cambrex) consisting of MSC Basal Medium supplemented with 10% fetal bovine serum, L-glutamine, 100 units/ml penicillin, and 0.1 mg/ml streptomycin. 2.5×10^4 hMSCs were seeded onto either tissue culture-treated polystyrene (TCP) or four different types of experimental substrates (1 cm^2) (PLG, HA-coated PLG, eBGu3-treated HA coating, or eBGa3-treated HA coating). hMSCs were allowed to attach to each substrate overnight, then cultured in MSCGM with osteogenic culture supplements (OS) (0.1 μM dexamethasone, 50 μg/ml ascorbic acid, and 10 mM β-glycerophosphate) for 24 days. The effects of soluble peptides included in culture medium were evaluated by adding 50 μg of eBGu3 or eBGa3 peptides to hMSC cultures on TCP in 500 μl of medium with or without osteogenic culture supplements. […]
The biological activity of modular peptides was initially assayed by their ability to enhance ALP activity in hMSCs. […] ALP activity was measured at 405 nm, and calculated as the ratio of p-nitrophenol released to total DNA concentration (nmol/min/μg DNA). To determine the amount of total DNA in each well, the cell nuclei were disrupted by addition of the aforementioned lysis buffer followed by centrifugation, and quantified using the CyQUANT Assay Kit (Molecular Probes, Eugene, Oreg.).

Assay [2] concerns hMSCs. The experiment in a line: Mineralized tissue formation by hMSCs (Alizarin Red-S staining). It counts as cell-based, human. The settings on record: soluble peptide (50 μg in 500 μl) with osteogenic supplements, hMSCs on TCP, day 20. As for the experimental part:
hMSCs (Cambrex, Walkersville, Md., passages 5-6) were cultured in mesenchymal stem cell growth medium (MSCGM: Cambrex) consisting of MSC Basal Medium supplemented with 10% fetal bovine serum, L-glutamine, 100 units/ml penicillin, and 0.1 mg/ml streptomycin. 2.5×10^4 hMSCs were seeded onto either tissue culture-treated polystyrene (TCP) or four different types of experimental substrates (1 cm^2) (PLG, HA-coated PLG, eBGu3-treated HA coating, or eBGa3-treated HA coating). hMSCs were allowed to attach to each substrate overnight, then cultured in MSCGM with osteogenic culture supplements (OS) (0.1 μM dexamethasone, 50 μg/ml ascorbic acid, and 10 mM β-glycerophosphate) for 24 days. The effects of soluble peptides included in culture medium were evaluated by adding 50 μg of eBGu3 or eBGa3 peptides to hMSC cultures on TCP in 500 μl of medium with or without osteogenic culture supplements. In each experimental and control sample, whole volume medium changes were performed every 4 days by replacement with fresh medium and collected medium was used for BMP-2 and OCN ELISA assays.
Characterization of mineralized tissue growth was performed via Alizarin Red-S (ARS) staining at day 20. […] For quantification of staining, 400 μl 10% (v/v) acetic acid was added to each well for 30 minutes with shaking. […] Aliquots (100 μl) of the supernatant were read in triplicate at 405 nm in 96-well plate reader.

In assay [3] the test system is mouse yolk sac endothelial C166-GFP cells. The experiment in a line: C166-GFP cell proliferation on peptide-treated HA slabs (CYQUANT). The class given is cell-based. To be noted: peptide-treated HA slab, 2-day culture, compared to control. The protocol:
Cells were again seeded at a density of 2×10^4 cells/cm^2 (4×10^4 cells per well) in 24-well plate. Prior to seeding, HA slabs (1 cm×1 cm) were incubated in peptide solution (PBS) for four hours at 37° C. and copiously rinsed with deionized water, and then placed in a well of the 24-well plate. After 1-day culture, cells were treated with 2 μM calcein AM solution, and imaged using Olympus IX-51 microscope.
Additionally, a cell number count of the C166-GFP cells as cultured in the presence of VEGF-OCN or VEGF mimic was determined For the cell count, cells were seeded at a density of 5×10^3 cells/cm^2 (1×10^4 cells per well) in a 24-well plate. After 2-day culture, cells were detached from the HA slab and cell number was assessed using CYQUANT assay.

A short description of assay [4]: Binding of VEGF-OCN and VEGF-mimic to HA particle / HA slab. The protocol: To measure the binding efficiency of modular peptides to the HA-coated PLG films and to gain preliminary insight into the properties that influence modular peptide immobilization, we first exposed 1 cm^2 HA-coated PLG films to PBS solutions containing 500 μg (1 mg/ml) of 5(6) FAM-conjugated eBMP-2, eBGu1, eBGu3, eBGa1, or eBGa3 modular peptide solution (See Table 1 for definitions of these abbreviations). The films were incubated in peptide solutions with constant agitation for 4 hours at 37° C., and the amount of free peptide remaining was determined by measuring the fluorescence emission of the solution (excitation: 494 nm; emission 519 nm) using a Synergy HT Multi-Detection Microplate Reader (BioTek, Winooski, Vt.), and comparing this emission to standard samples with known concentrations of 5(6)-FAM. To further characterize surface immobilization of the peptide with the highest binding efficiency—the eBGa3 peptide—1 cm^2 HA-coated films were incubated in various concentrations (50-750 μM) of 5(6)-FAM-conjugated eBGa3 peptide for 4 hours with constant agitation at 37° C. The amount of peptide bound to HA-coated film was again determined by fluorescence analysis, as described above.
The binding behavior of the peptides (both modular peptide, VEGF-OCN (SEQ ID NO:18), and VEGF-mimic) were analyzed and compared as described above. The amount of bound VEGF-OCN on the HA particle increased with peptide concentration and reached saturation at 15 μM (FIG. 8A).

Assay [5] relates to mouse yolk sac endothelial C166-GFP cells. Description: C166-GFP cell proliferation with soluble peptides (CYQUANT). The class given is cell-based. To be noted: soluble peptide, 48 hours of stimulation, compared to a control. As for the experimental part:
To determine biological activity of VEGF portion for promoting cell proliferation, mouse yolk sac endothelial C166-GFP cells were seeded at a density of 3.12×10^3 cells/cm^2 (1×10^3 cells per well) in 96-well plate, allowed to attach for six hours, and then stimulated with either VEGF-OCN or VEGF-mimic After 48 hours of stimulation, optical micrographs were taken using Olympus IX-51 microscope and cell numbers were determined by CYQUANT assay.

Non-standard residues stand in square brackets, D forms with d. No end group written: not given here. Gla = N[C@@H](CC(C(=O)O)C(=O)O)C(=O)O

“KIPKASSVPTELSAISTLYLAAAAEPRREVAEL [eBGu3]”: the “effect on ALP activity” value in assay [1] was “no significant differences between the positive effects of eBGu3 and eBGa3”. For the same substance, the “effect on mineralized tissue formation” value in assay [2] was “no significant differences between the positive effects of eBGu3 and eBGa3”.
With “KLTWQELYQLKYKGI-GGGAAAA-γEPRRγEVAγEL (KLTWQELYQLKYKGIGGGAAAA[Gla]PRR[Gla]VA[Gla]L) [VEGF-OCN]”, the cell number result in assay [3] is given as “promoted cell proliferation”. For the same substance, in assay [4] (HA particle), the “peptide concentration at which bound amount reached saturation” value amounted to 15 µM and the “time to complete binding to HA particle” value was “completed within five minutes”. Moreover, the cell number entry in assay [5] was “increase in cell number to the similar extent when compared to a control”.
With “KIPKASSVPTELSAISTLYLAAAAγEPRRγEVAγEL (KIPKASSVPTELSAISTLYLAAAA[Gla]PRR[Gla]VA[Gla]L-NH2; N-terminus assumed; SMILES CC[C@H](C)[C@H](NC(=O)[C@H](C)NC(=O)[C@H](CO)NC(=O)[C@H](CC(C)C)NC(=O)[C@H](CCC(=O)O)NC(=O)[C@@H](NC(=O)[C@@H]1CCCN1C(=O)[C@@H](NC(=O)[C@H](CO)NC(=O)[C@H](CO)NC(=O)[C@H](C)NC(=O)[C@H](CCCCN)NC(=O)[C@@H]1CCCN1C(=O)[C@@H](NC(=O)[C@@H](N)CCCCN)[C@@H](C)CC)C(C)C)[C@@H](C)O)C(=O)N[C@@H](CO)C(=O)N[C@H](C(=O)N[C@@H](CC(C)C)C(=O)N[C@@H](Cc1ccc(O)cc1)C(=O)N[C@@H](CC(C)C)C(=O)N[C@@H](C)C(=O)N[C@@H](C)C(=O)N[C@@H](C)C(=O)N[C@@H](C)C(=O)N[C@@H](CC(C(=O)O)C(=O)O)C(=O)N1CCC[C@H]1C(=O)N[C@@H](CCCNC(=N)N)C(=O)N[C@@H](CCCNC(=N)N)C(=O)N[C@@H](CC(C(=O)O)C(=O)O)C(=O)N[C@H](C(=O)N[C@@H](C)C(=O)N[C@@H](CC(C(=O)O)C(=O)O)C(=O)N[C@@H](CC(C)C)C(N)=O)C(C)C)[C@@H](C)O) [eBGa3]”, the “effect on ALP activity” value in assay [1] is “significantly increased ALP activity”. Further, the “effect on mineralized tissue formation” value in assay [2] is “significantly increased”.
With “KLTWQELYQLKYKGI [VEGF-mimic, First synthesized by Pedon, et al., inspired by the VEGF helical region, reference compound]”, the “amount bound to HA slab” value in assay [4] (HA slab, qualitative comparison) is “much less than that of VEGF-OCN”. For the same substance, in assay [5], the cell number result is given as “increase in cell number to the similar extent when compared to a control”.
